Results on 4 substances are retold here after US11667661B2, “Benzimidazole derivatives, preparation method thereof and use thereof as anti-cancer agent comprising the same” (BIOMETRIX TECHNOLOGY INC, priority 2020, dated 2023).

For data set [1], the system named is human lung cancer cell line A549, cervical cancer cell line Hela, colorectal cancer cell line HT-29. Nature of the data set: Cancer cell line growth inhibition test (WST-8 cell viability, 72 h). Conditions: for Cancer Cell line growth inhibition test: relative evaluation compared to doxorubicin. In kind it is cell-based. Here is the method: A human lung cancer cell line A549, a cervical cancer cell line Hela, and a colorectal cancer cell line HT-29 were adopted from the Korea Cell Line Bank (KCLB, Seoul, Korea) and cultured in a culture medium.
In a humidified cell culture incubator containing 5% CO2; at 37° C. using a DMEM and a 10% culture flask, fetal bovine serum (FBS), 0.1 mM MEM non-essential amino acid (NEAA), 2 mM L-glutamine, and 1% penicillin-streptomycin were trypsinized every 2 to 3 days according to the instructions provided by the KCLB to subculture the cells. The culture was cultured until reached 80% to 90% of confluence, and the cells were successively transferred to a culture flask for a cancer cell line growth inhibition test.
A cancer cell line, a human lung cancer cell line A549, a cervical cancer cell line Hela, and a colorectal cancer cell line HT-29 to be tested were seeded in a 96-well plate at about 10,000 cells per well.
After incubation, the medium was removed and the cell viability in each well was measured using a WST-8 cell viability assay kit (Quanti-Max™, BIOMAX) and according to a procedure instructed by a manufacturer.
The analysis used a principle that dehydrogenase of living cells decomposed tetrazolium salt to generate formazan, and through this, the living cells were quantitatively evaluated.
Reduced formazan salt was soluble in a cell culture medium and an amount of formazan was directly proportional to the number of living cells (Slater, T. et al. (1963) Biochem. Biophys. Acta 77:383. van de Loosdrecht, A. A., et al. J. Immunol. Methods 174: 311-320, 1994. Alley, M. C., et al. Cancer Res. 48: 589-601, 1988.).

The subject of data set [2] is normal lung cell line MRC-5 and normal colon CCD-18Co cell line. Nature of the data set: Toxicity test in normal cell line (WST-8 cell viability, 72 h). In kind it is cell-based. The following applies: for Normal cell line toxicity test: relative evaluation compared to doxorubicin. A general note: Tetrazolium dyes change colour on reduction, which living cells bring about.

Entries after “also recorded” stand apart in the source; their conditions may differ.

Regarding “Fenbendazole-1,2,3,4-Tetra-β-D-glucose [FB-1]”, the “Cancer Cell line growth inhibition test” value in data set [1] was “AA (AA represents equal (1 to 2 times))”.
With “albendazole-1,2,3,4-Tetra-β-D-fructose [AL-2]”, in data set [1], the “Cancer Cell line growth inhibition test” value is “AA (AA represents equal (1 to 2 times))”. Besides, the “Normal cell line toxicity test” value in data set [2] was “AA (AA represents little toxicity ( 1/10 times))”.
Consider “albendazole-1,2,3,4-Tetra-β-D-glucose [AL-1]”, for which the “cancer cell line growth inhibition efficiency” value in data set [1] (FIG. 1, A549, Hela, HT-29, 0-100 μM, 72 hours, versus albendazole, fenbendazole, doxorubicin) was “most excellent; also recorded: very excellent”. In data set [1], the “Cancer Cell line growth inhibition test” value is given as “AA (AA represents equal (1 to 2 times))”. Besides, the “toxicity to the normal cell lines” value in data set [2] (FIG. 2, MRC-5, CCD-18Co, 0-100 μM, 72 hours, compared to albendazole, fenbendazole, and doxorubicin) is recorded as “very weak”. Further, the “Normal cell line toxicity test” value in data set [2] is “AA (AA represents little toxicity ( 1/10 times))”.
“Fenbendazole-1,2,3,4-Tetra-β-D-fructose [FB-2]”: the “Cancer Cell line growth inhibition test” value in data set [1] was “AA (AA represents equal (1 to 2 times))”.
